Assay results as given in the supplement of paper PMC13380429.

Legend:
Conditions in all cases: 72 h
Caco-2 [1] = assay: cell viability relative to DMSO; higher = less toxic
HepG2 [2] = assay: as above
U2OS [3] = assay: as above
Vero E6 [4] = assay: as above
HepG2 [5] = assay: relative viability EC50 (midpoint between 100% and the lowest measured viability); higher = less toxic
U2OS [6] = assay: as above
Vero E6 [7] = assay: as above
Caco-2 [8] = assay: drug sensitivity score (DSS) for viability; higher = more toxic; extreme values may be limits of the assay
HepG2 [9] = assay: as above
U2OS [10] = assay: as above
Vero E6 [11] = assay: as above
Calu-3 [12] = assay: cell viability relative to DMSO; higher = less toxic
Calu-3 [13] = assay: drug sensitivity score (DSS) for viability; higher = more toxic; extreme values may be limits of the assay
Caco-2 [14] = assay: relative viability EC50 (midpoint between 100% and the lowest measured viability); higher = less toxic

SMILES	cell viability (Caco-2 [1]; 1 nM) [%]	cell viability (Caco-2 [1]; 10 nM) [%]	cell viability (Caco-2 [1]; 100 nM) [%]	cell viability (Caco-2 [1]; 1000 nM) [%]	cell viability (Caco-2 [1]; 10000 nM) [%]	cell viability (HepG2 [2]; 1 nM) [%]	cell viability (HepG2 [2]; 10 nM) [%]	cell viability (HepG2 [2]; 100 nM) [%]	cell viability (HepG2 [2]; 1000 nM) [%]	cell viability (HepG2 [2]; 10000 nM) [%]	cell viability (U2OS [3]; 1 nM) [%]	cell viability (U2OS [3]; 10 nM) [%]	cell viability (U2OS [3]; 100 nM) [%]	cell viability (U2OS [3]; 1000 nM) [%]	cell viability (U2OS [3]; 10000 nM) [%]	cell viability (Vero E6 [4]; 1 nM) [%]	cell viability (Vero E6 [4]; 10 nM) [%]	cell viability (Vero E6 [4]; 100 nM) [%]	cell viability (Vero E6 [4]; 1000 nM) [%]	cell viability (Vero E6 [4]; 10000 nM) [%]	relative viability EC50 (HepG2 [5]) [µM]	relative viability EC50 (U2OS [6]) [µM]	relative viability EC50 (Vero E6 [7]) [µM]	drug sensitivity score (Caco-2 [8])	drug sensitivity score (HepG2 [9])	drug sensitivity score (U2OS [10])	drug sensitivity score (Vero E6 [11])	cell viability (Calu-3 [12]; 1 nM) [%]	cell viability (Calu-3 [12]; 10 nM) [%]	cell viability (Calu-3 [12]; 100 nM) [%]	cell viability (Calu-3 [12]; 1000 nM) [%]	cell viability (Calu-3 [12]; 10000 nM) [%]	drug sensitivity score (Calu-3 [13])	relative viability EC50 (Caco-2 [14]) [µM]
Oc1ccc(CC2NCCc3cc(O)c(O)cc32)cc1 (centres undefined) [higenamine]	97.6	102	94.9	86.2	59.4	105	97.1	99.3	83.3	32.6	98.1	103	97.5	98.1	36.6	104	99.2	102	100	48.6	1.56	2.95	3.22	3.5	6.3	3.7	2.7							
O=S(=O)(c1cccc2c(O)nccc12)N1CCCNCC1 [hydroxyfasudil]	98.7	99.3	94	107	109	96.6	97.7		97.7	98.3	95.4	101	96.4		102	95.7	95.8	96.4	90.3	107				0	0	0	0	91.6	94.1	110	119	136	0	
O=[N+]([O-])O[C@@H]1CO[C@H]2[C@@H]1OC[C@@H]2O [isosorbide-mononitrate]	100	111	94.4	117	114	101	108	91.2	98.7	93.3	96.5	96.8	93.5	96.7	97.2	103	103	101	104	94.4	> 10	> 10	> 10	0	0	0	0							> 10
CC(COc1ccccc1)NC(C)C(O)c1ccc(O)cc1 (centres undefined) [isoxsuprine]																									0		0						0	
O=c1c(O)c(-c2ccc(O)cc2)oc2cc(O)cc(O)c12 [kaempferol]	98.5	99.9	97.5	95.9	82.4	93.8	86.9	106	97.5	94.1	98.2	99.6	97	96.7	101	101	104	98.5	102	103	> 10	> 10	> 10	0.9	0	0	0							> 10
